Measured values as given in US8445207B2, “Genes based on thalidomide, valproic acid and methotrexate treatment for screening of drug inducing teratogenicity and screening method using thereof” (priority 2009, dated 2013).

Tested on: JEG-3 (human placental choriocarcinoma cell line)
Experiment: Oligo microarray gene expression in drug-treated JEG-3 (Cy5 treated / Cy3 control)
Type: cell-based
Protocol: Thalidomide, valproic acid, and methotrexate were treated to human placental choriocarcinoma cell line at the concentrations determined above (Inhibition concentration: the concentration that can kill approximately 30% of the total cells, that is the concentration of 70% viability, IC30). mRNA was extracted from the drug treated cell line, followed by synthesis of cDNA which was labeled with Cy5. The non-treated control was labeled with Cy3. The fluorescence labeled cDNA was hybridized with 41K (thalidomide), 44K (valproic acid, methotrexate) human whole genome oligomicroarray chips (Agilent, USA), followed by fluorescent image scanning to analyze gene expression patterns (see FIG. 4). Volcano Plot of each substance was also attached. Y axis indicates probability (generally converted by −log 10). X axis indicates differential expression, which is presented by log-ratio.
Total RNA was separated from the treated cell by using trizol reagent (Invitrogen Life Technologies, USA) according to the manufacture's instructions, followed by purification using RNeasy mini kit (Qiagen, USA). Genomic DNA was eliminated during RNA purification using RNase-free DNase set (Qiagen, USA).
30 μg of the total RNA obtained above and 2 μg (1 μg/μl) of oligo (dT) primer were mixed, followed by reaction at 65° C. for 10 minutes. Annealing was performed in ice right after the reaction. Reagents were prepared as shown in Table 1 for reverse transcription of the annealed RNA.
The total RNA separated from the control group JEG-3 cells was labeled with Cy3-dUTP (green) and the total RNA separated from the experiment group JEG-3 cells treated with thalidomide, valproic acid and methotrexate was labeled with Cy5-dUTP (red). At this time, the two samples were mixed and purified by Microcon YM-30 column (Millipore, USA).
Hybridization and washing were performed by the manufacturer's (GenoCheck, Korea) instructions. Particularly, hybridization was performed in a 62° C. oven for 12 hours. As a DNA microarray chip, 44 k whole human genome oligo microarray (Agilent, USA) was used. After washing (2 minutes with 2×SSC/0.1% SDS, three minutes with 1×SSC, 2 minutes with 0.2×SSC), the slide was dried by centrifugation at 800 rpm for 3 minutes.
Hybridization image on the slide was scanned with Genepix 4000B (Axon Instruments, USA). Fluorescence image of the chip on which non-hybridized genes had been washed out was obtained by using laser fluorescence scanner. Green fluorescence image indicates the activity of gene specifically expressed in the control group and red fluorescence image indicates the activity of gene specifically expressed in the experimental group. […] Scanned image was analyzed by using GenePix 4.1 software (Axon Instruments, USA) to calculate gene expression rate.

`CN(Cc1cnc2nc(N)nc(N)c2n1)c1ccc(C(=O)N[C@@H](CCC(=O)O)C(=O)O)cc1` [MTX, methotrexate] was tested, and the “cDNA microarray (Cy3/Cy5 ratio), KIAA0310” value (GenBank AB002308) was 2.29, the “cDNA microarray (Cy3/Cy5 ratio), ATP10B” value (GenBank AB018258) was 4.95 and the “cDNA microarray (Cy3/Cy5 ratio), TTF2” value (GenBank AB209845) was 1.94. The “cDNA microarray (Cy3/Cy5 ratio), TncRNA” value (GenBank AF001893) was 2.11, the “cDNA microarray (Cy3/Cy5 ratio), C4orf19” value (GenBank AK001879) was 4.69 and the “cDNA microarray (Cy3/Cy5 ratio), CYP19A1” value (GenBank AK023571) was 2.72. For the same compound, the “cDNA microarray (Cy3/Cy5 ratio), SLC40A1” value (GenBank AK023574) was 3.06, the “cDNA microarray (Cy3/Cy5 ratio), ABTB2” value (GenBank AK095632) was 4.65 and the “cDNA microarray (Cy3/Cy5 ratio), TUBB3” value (GenBank AK122757) was 7.85. For the same compound, the “cDNA microarray (Cy3/Cy5 ratio), MGC27016” value (GenBank AK125877) was 1.52, the “cDNA microarray (Cy3/Cy5 ratio), GLCCI1” value (GenBank AK126731) was 2.84 and the “cDNA microarray (Cy3/Cy5 ratio), TFCP2L4” value (GenBank BC036890) was 4.11. For the same compound, the “cDNA microarray (Cy3/Cy5 ratio), RGS2” value (GenBank BC042755) was 9.24, the “cDNA microarray (Cy3/Cy5 ratio), SIAT7A” value (GenBank BC063830) was 15.01 and the “cDNA microarray (Cy3/Cy5 ratio), B7-H4” value (GenBank BX648021) was 0.27. The “cDNA microarray (Cy3/Cy5 ratio), COBLL1” value (GenBank BX649112) was 4.89, the “cDNA microarray (Cy3/Cy5 ratio), CGA” value (GenBank NM_000735) was 8.07 and the “cDNA microarray (Cy3/Cy5 ratio), PARP1” value (GenBank NM_001618) was 0.6. For the same compound, the “cDNA microarray (Cy3/Cy5 ratio), SERPINB9” value (GenBank NM_004155) was 4.04, the “cDNA microarray (Cy3/Cy5 ratio), ST8SIA4” value (GenBank NM_005668) was 1.82 and the “cDNA microarray (Cy5 treated / Cy3 control ratio), ABL1” value (GenBank NM_007313) was 0.49. For the same compound, the “cDNA microarray (Cy3/Cy5 ratio), GRLF1” value (GenBank NM_024342) was 0.29, the “cDNA microarray (Cy3/Cy5 ratio), LGP1” value (GenBank NM_032484) was 0.49 and the “cDNA microarray (Cy3/Cy5 ratio), NCOA3” value (GenBank NM_181659) was 2.12. For the same compound, the “cDNA microarray (Cy3/Cy5 ratio), SR140” value (GenBank XM_031553) was 0.66, the “cDNA microarray (Cy3/Cy5 ratio), SLC7A8” value (GenBank Y18483) was 3.76 and the “Ratio of intermediate value, NLGN1” value (Genbank AB028993, drug at IC30) was 0.25. The “Ratio of intermediate value, VARS2L” value (Genbank AB067472, drug at IC30) was 0.46, the “Ratio of intermediate value, PPAT” value (Genbank AB209246, drug at IC30) was 0.44 and the “Ratio of intermediate value, SEMA3B” value (Genbank AB209322, drug at IC30) was 0.48. The “Ratio of intermediate value, SCLY” value (Genbank AB209458, drug at IC30) was 0.41, the “Ratio of intermediate value, C8orf1” value (Genbank AF061326, drug at IC30) was 0.46 and the “Ratio of intermediate value, KUB3” value (Genbank AF078164, drug at IC30) was 0.45. The “Ratio of intermediate value, GTF2H2” value (Genbank AF078847, drug at IC30) was 0.44, the “Ratio of intermediate value, PARD3” value (Genbank AF196185, drug at IC30) was 0.28 and the “Ratio of intermediate value, Homo sapiens cDNA FLJ12651 fis, clone NT2RM4002062” value (Genbank AK022713, drug at IC30) was 0.21. The “Ratio of intermediate value, BCAT2” value (Genbank AK023909, NM_001190, drug at IC30) was 0.35, the “Ratio of intermediate value, ASS” value (Genbank AK027126, drug at IC30) was 0.19 and the “Ratio of intermediate value, SHMT2” value (Genbank AK055053, drug at IC30) was 0.42. For the same compound, the “Ratio of intermediate value, FLJ23441” value (Genbank AK056980, drug at IC30) was 0.41, the “Ratio of intermediate value, RUVBL2” value (Genbank AK057498, drug at IC30) was 0.42 and the “Ratio of intermediate value, ERCC2” value (Genbank AK092872, drug at IC30) was 0.40. The “Ratio of intermediate value, PHGDH” value (Genbank AK093306, drug at IC30) was 0.16, the “Ratio of intermediate value, GLUD1” value (Genbank AK122685, drug at IC30) was 0.34 and the “Ratio of intermediate value, HMGB1” value (Genbank AK122825, drug at IC30) was 0.37. The “Ratio of intermediate value, YARS” value (Genbank AK125213, drug at IC30) was 0.38, the “Ratio of intermediate value, FANCF” value (Genbank BC005077, NM_022725, drug at IC30) was 0.40 and the “Ratio of intermediate value, C9orf103” value (Genbank BC036421, drug at IC30) was 0.38. For the same compound, the “Ratio of intermediate value, CAD” value (Genbank BC065510, drug at IC30) was 0.40, the “Ratio of intermediate value, GRLF1” value (Genbank BI494022, NM_024342, drug at IC30) was 0.29 and the “Ratio of intermediate value, CIB1” value (Genbank BM467105, drug at IC30) was 0.44. For the same compound, the “Ratio of intermediate value, RAD51L1” value (Genbank BX248766, drug at IC30) was 0.43, the “Ratio of intermediate value, NBS1” value (Genbank BX640816, drug at IC30) was 0.31 and the “Ratio of intermediate value, B7-H4” value (Genbank BX648021, drug at IC30) was 0.27. For the same compound, the “Ratio of intermediate value, APEX1” value (Genbank CR611116, drug at IC30) was 0.33, the “Ratio of intermediate value, GNAO1” value (Genbank CR936770, drug at IC30) was 0.49 and the “Ratio of intermediate value, DCLRE1A” value (Genbank D42045, drug at IC30) was 0.43. The “Ratio of intermediate value, CBS” value (Genbank L00972, drug at IC30) was 0.47.
